Several values for one entry are separate records, joined by “and”; a condition that tells them apart may be missing. Equal entries are not always repeated.
biological target: T1, human stefin B (stB wt) (Homo sapiens, UniProt P04080, C3S); assay: intrinsic Tyr fluorescence quenching, modified Stern-Volmer; assay type: binding; conditions: 34 uM protein, 25 C, excitation 277 nm
T1 construct: gene CSTB; Cys3 replaced by Ser
T1 sequence (P04080 1-98 C3S): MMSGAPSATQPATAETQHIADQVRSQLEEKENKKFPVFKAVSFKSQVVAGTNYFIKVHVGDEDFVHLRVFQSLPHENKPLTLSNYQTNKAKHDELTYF

Compound	Ka
O=c1c(O)c(-c2ccc(O)c(O)c2)oc2cc(O)cc(O)c12 [quercetin, 2-(3,4-dihydroxyphenyl)-3,5,7-trihydroxy-4H-chromen-4-one]	each compound also acts as a quencher of tyrosine fluorescence
COc1cc(/C=C/C(=O)CC(=O)/C=C/c2ccc(O)c(OC)c2)ccc1O [curcumin, (1E,6E)-1,7-bis(4-hydroxy-3-methoxyphenyl)hepta-1,6-diene-3,5-dione]	binding constants show that curcumin binds more tightly than do other antioxidants studied here
Oc1ccc(/C=C/c2cc(O)cc(O)c2)cc1 [resveratrol, 3,5,40-trihydroxystilbene]	each compound also acts as a quencher of tyrosine fluorescence
CC(=O)N[C@@H](CS)C(=O)O [NAC, (2R)-2-acetamido-3-sulfanyl propanoic acid]	each compound also acts as a quencher of tyrosine fluorescence
O=C1O[C@H]([C@@H](O)CO)C(O)=C1O [vitamin C, (2R)-2-[(1S)-1,2-dihydroxyethyl]-3,4-dihydroxy-2H-furan-5-one]	each compound also acts as a quencher of tyrosine fluorescence

biological target: human stefin B (stB wt), recombinant, Cys 3 replaced with Ser (human) (UniProt P04080); assay: cross-linking; stB wt fibrillation mixture (34 uM protein, 0.015 M acetate buffer, 0.15 M NaCl, pH 4.8, 10% v/v TFE, room temperature) aged 24 hours, with or without antioxidants (NAC, vit C and others); cross-linked with 50-fold molar excess of BS3, then SDS-PAGE; conditions: not given

Compound	stoichiometry N
human stefin B (stB wt), recombinant, Cys 3 replaced with Ser (from UniProt P04080 8-98) (natural protein)	2 and > 4
